These compounds were tested against T1, human recombinant GPR65 (Homo sapiens, UniProt Q8IYL9) (assay: Human GPR65 cAMP HTRF antagonist assay). Conditions: 1321N1-hrGPR65 cells, assay pH 7.2, cAMP HTRF; read-out: hGPR65 IC50.
T1 construct: host or cells: 1321N1 human astrocytoma cells (1321N1-hrGPR65)
Format: cell-based
Method: Human GPR65 Cyclic Adenosine Monophosphate (cAMP) Homogeneous Time Resolved Fluorescence (HTRF) Antagonist Assay Procedure
IC50 data was obtained by the following procedure:
1321N1 human astrocytoma cells stably expressing human recombinant GPR65 (1321N1-hrGPR65 cells, EuroscreenFast) were cultured according to the vendor's instructions.
Compounds were tested for their ability to antagonise GPR65, through measuring the concentration of cytoplasmic cAMP following treatment of the cells at a pH of 7.2 to activate GPR65 signalling and addition of the compound to be tested. The extent to which the expected rise in cAMP concentration upon GPR65 activation was suppressed by the added compound is indicative of its potency. The assay was carried out according to EuroscreenFast assay Methodology as follows.
On the day of the assay, test compounds were added to 384-well, low volume, white microtiter plates by acoustic dispensing. KRH buffer (5 mM KCl, 1.25 mM MgSO4, 124 mM NaCl, 25 mM HEPES, 13.3 mM Glucose, 1.25 mM KH2PO4 and 1.45 mM CaCl2) was adjusted to pH 6.5, pH 7.6 and pH 8.4 by adding NaOH. 1321N1-hGPR65 cells were rapidly thawed and diluted in KRH, pH 7.6 prior to centrifugation at 300×g for 5 min and resuspension in assay buffer (KRH, pH 7.6, supplemented with 1 mM 3-isobutyl-1-methylxanthine (IBMX) and 200 μM ethylenediaminetetraacetic acid (EDTA)). Cells were added to assay plates at a density of 2,000 cells per well in a volume of 5 μl. Assay plates were briefly centrifuged at 100×g and then incubated at room temperature for 30 min. Cells were stimulated by the addition of 5 μL KRH, pH 6.5, to achieve an assay pH of 7.2, while control wells received 5 μl KRH, pH 8.4 to achieve an assay pH of 7.9. Assay plates were briefly centrifuged at 100×g and then incubated at room temperature for 30 min.
Accumulation of cAMP was detected by cAMP HTRF kit (Cisbio). d2-labeled cAMP and cryptate-labeled anti-cAMP antibody in Lysis and Detection Buffer (Cisbio) were added to assay plates, and the plates were incubated at room temperature for 1 h. HTRF measurements were performed using a Pherastar FSX instrument. Acceptor and donor emission signals were measured at 665 nm and 620 nm, respectively, and HTRF ratios were calculated as signal665 nm/signal620 nm×10^4. Data were normalised to high and low control values and fitted with 4-parameter logistic regression to determine hGPR65 IC50 values for the test compounds, which are shown in Table 1.

T1 sequence (Q8IYL9 whole entry): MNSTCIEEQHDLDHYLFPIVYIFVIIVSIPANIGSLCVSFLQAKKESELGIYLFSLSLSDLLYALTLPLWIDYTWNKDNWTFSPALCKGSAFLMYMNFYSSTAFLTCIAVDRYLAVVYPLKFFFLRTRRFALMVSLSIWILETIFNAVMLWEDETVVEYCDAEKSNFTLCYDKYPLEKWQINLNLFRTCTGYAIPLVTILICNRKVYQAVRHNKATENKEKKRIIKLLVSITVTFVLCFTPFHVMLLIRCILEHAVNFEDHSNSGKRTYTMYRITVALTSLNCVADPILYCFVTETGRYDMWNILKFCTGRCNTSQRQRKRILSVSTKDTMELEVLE

SMILES	IC50
COc1cc(-c2ccc(OCC(F)(F)F)nc2)c(Cl)cc1NC(=O)N1CCc2cc(=O)[nH]cc2C1 [Compound 14, N-(5-chloro-2-methoxy-4-(6-(2,2,2-trifluoroethoxy)pyridin-3-yl)phenyl)-6-oxo-3,4,6,7-tetrahydro-2,7-naphthyridine-2(1H)-carboxamide]	500 to 5000 nM
COc1ccc(-c2cc(F)c(NC(=O)N3CCc4cc(=O)[nH]cc4C3)cc2Cl)cn1 [Compound 2, N-(5-Chloro-2-fluoro-4-(6-methoxypyridin-3-yl)phenyl)-6-oxo-3,4,6,7-tetrahydro-2,7-naphthyridine-2(1H)-carboxamide]	< 500 nM
CC(C)COc1ccc(-c2cc(F)c(NC(=O)N3CCc4cc(=O)[nH]cc4C3)cc2Cl)cn1 [Compound 9, N-(5-Chloro-2-fluoro-4-(6-isobutoxypyridin-3-yl)phenyl)-6-oxo-3,4,6,7-tetrahydro-2,7-naphthyridine-2(1H)-carboxamide]	< 500 nM
O=C(Nc1cc(Cl)c(-c2ccc(F)nc2)cc1F)N1CCc2cc(=O)[nH]cc2C1 [Compound 3, N-(5-chloro-2-fluoro-4-(6-fluoropyridin-3-yl)phenyl)-6-oxo-3,4,6,7-tetrahydro-2,7-naphthyridine-2(1H)-carboxamide]	500 to 5000 nM
O=C(Nc1cc(Cl)c(-c2cc3nonc3cc2F)cc1F)N1CCc2cc(=O)[nH]cc2C1 [Compound 8, N-(5-Chloro-2-fluoro-4-(6-fluorobenzo[c][1,2,5]oxadiazol-5-yl)phenyl)-6-oxo-3,4,6,7-tetrahydro-2,7-naphthyridine-2(1H)-carboxamide]	< 500 nM
O=C(Nc1cc(Cl)c(-c2cc(F)c3nonc3c2)cc1F)N1CCc2cc(=O)[nH]cc2C1 [Compound 7, N-(5-Chloro-2-fluoro-4-(7-fluorobenzo[c][1,2,5]oxadiazol-5-yl)phenyl)-6-oxo-3,4,6,7-tetrahydro-2,7-naphthyridine-2(1H)-carboxamide]	< 500 nM
O=C(Nc1cc(Cl)c(-c2ccc3nonc3c2)cc1F)N1CCc2cc(=O)[nH]nc2C1 [Compound 13, N-(4-(Benzo[c][1,2,5]oxadiazol-5-yl)-5-chloro-2-fluorophenyl)-3-oxo-2,5,6,8-tetrahydropyrido[3,4-c]pyridazine-7(3H)-carboxamide]	< 500 nM
O=C(Nc1cc(Cl)c(-c2ccnc(OCC(F)(F)F)c2)cc1F)N1CCc2cc(=O)[nH]cc2C1 [Compound 11, N-(5-Chloro-2-fluoro-4-(2-(2,2,2-trifluoroethoxy)pyridin-4-yl)phenyl)-6-oxo-3,4,6,7-tetrahydro-2,7-naphthyridine-2(1H)-carboxamide]	< 500 nM
O=C(Nc1cc(Cl)c(-c2cnc3nonc3c2)cc1F)N1CCc2cc(=O)[nH]cc2C1 [Compound 4, N-(4-([1,2,5]Oxadiazolo[3,4-b]pyridin-6-yl)-5-chloro-2-fluorophenyl)-6-oxo-3,4,6,7-tetrahydro-2,7-naphthyridine-2(1H)-carboxamide]	500 to 5000 nM
O=C(Nc1cc(Cl)c(-c2cnc3nonc3c2)cc1F)N1CCc2c(ccnc2F)C1 [Compound 5, N-(4-([1,2,5]Oxadiazolo[3,4-b]pyridin-6-yl)-5-chloro-2-fluorophenyl)-5-fluoro-3,4-dihydro-2,6-naphthyridine-2(1H)-carboxamide]	< 500 nM
O=C(Nc1cc(Cl)c(-c2cnc(OCC(F)(F)F)c(F)c2)cc1F)N1CCc2cc(=O)[nH]cc2C1 [Compound 10, N-(5-Chloro-2-fluoro-4-(5-fluoro-6-(2,2,2-trifluoroethoxy)pyridin-3-yl)phenyl)-6-oxo-3,4,6,7-tetrahydro-2,7-naphthyridine-2(1H)-carboxamide]	< 500 nM
O=C(Nc1cc(Cl)c(-c2ccc(OCC(F)(F)F)nc2)cc1F)N1CCc2cc(=O)[nH]nc2C1 [Compound 12, N-(5-Chloro-2-fluoro-4-(6-(2,2,2-trifluoroethoxy)pyridin-3-yl)phenyl)-3-oxo-2,5,6,8-tetrahydropyrido[3,4-c]pyridazine-7(3H)-carboxamide]	< 500 nM
O=C(Nc1cc(Cl)c(-c2ccc3nonc3c2)cc1F)N1CCc2cc(=O)[nH]cc2C1 [Compound 1, N-(4-(Benzo[c][1,2,5]oxadiazol-5-yl)-5-chloro-2-fluorophenyl)-6-oxo-3,4,6,7-tetrahydro-2,7-naphthyridine-2(1H)-carboxamide]	< 500 nM
O=C(Nc1cc(Cl)c(-c2ccc(OCC(F)(F)F)nc2)cc1F)N1CCc2cc(=O)[nH]cc2C1 [Compound 6, N-(5-Chloro-2-fluoro-4-(6-(2,2,2-trifluoroethoxy)pyridin-3-yl)phenyl)-6-oxo-3,4,6,7-tetrahydro-2,7-naphthyridine-2(1H)-carboxamide]	< 500 nM
Cc1cc(-c2ccc(OCC(F)(F)F)nc2)c(Cl)cc1NC(=O)N1CCc2cc(=O)[nH]cc2C1 [Compound 15, N-(5-Chloro-2-methyl-4-(6-(2,2,2-trifluoroethoxy)pyridin-3-yl)phenyl)-6-oxo-3,4,6,7-tetrahydro-2,7-naphthyridine-2(1H)-carboxamide]	500 to 5000 nM
O=C(Nc1cc(Cl)c(-c2ccc(F)nc2)cc1OCc1ccccc1)N1CCc2cc(=O)[nH]cc2C1 [Compound 16, N-(2-(Benzyloxy)-5-chloro-4-(6-fluoropyridin-3-yl)phenyl)-6-oxo-3,4,6,7-tetrahydro-2,7-naphthyridine-2(1H)-carboxamide]	> 5000 nM
